Assay type in all cases: in vivo
The test system of one experiment is Plutella xylostella. The experiment is described as follows: Plutella xylostella leaf dip method (cabbage leaves). The settings on record: foliar, second instar larvae, 72 h after release, dead and moribund combined, compared to untreated control, read-out: Percent mortality. The procedure: The leaf dip method was used for testing, wherein the required quantity of the compounds were weighed and dissolved in a surfactant solution, kept on a Vortex at 2000 rpm with zirconia beads for 90 min for proper mixing and then diluted with 0.01% Triton-X solution to the desired test concentration. Cabbage leaves were dipped in the solution for 10 seconds, shade dried for 20 min and then transferred to bioassay trays. A single second instar larva was released into each bioassay tray cell and the tray was covered with a lid. The bio-assay trays were kept under laboratory conditions at a temperature of 25° C. and relative humidity of 70%. Observations on dead, moribund and living larvae were recorded at 72 h after the release. Percent mortality was calculated by combining dead and moribund larvae and comparing the result to the one of the untreated control.

A further experiment relates to Helicoverpa armigera. Put plainly: Helicoverpa armigera diet incorporation method. The settings on record: third instar larvae, 96 h after release, dead and moribund combined, compared to untreated control, read-out: Percent mortality. The procedure: Diet incorporation method was used, in which the required quantity of test compounds were weighed and dissolved in a surfactant solution, kept on vortex for 90 min for proper mixing, then was diluted with water to the desired test concentrations. The solutions were incorporated into semi-synthetic diet when the temperature reached approximately 50° C. in the bioassay containers. The diet and solution was stirred thoroughly for properly mixing and then left to cool for 30 min. The solidified diet was cut into equal pieces, and then each piece was transferred into one cell of the bio-assay trays. A single third starved instar larva was released into each of these cells of the bioassay trays and each tray was covered with a lid. The bio-assay trays were kept under laboratory conditions at a temperature of 25° C. and relative humidity of 70%. Observations on dead, moribund and alive larvae were recorded at 96 h after the release of the larvae. Percent mortality was calculated by combining dead and moribund larvae and comparing the result to the one of the untreated control.

The test system of the next experiment is Spodoptera litura. Put plainly: Spodoptera litura diet incorporation method. The settings on record: third instar larvae, 96 h after release, dead and moribund combined, compared to untreated control, read-out: Percent mortality. Here is the method: Diet incorporation method was used, in which the required quantity of test compounds were weighed and dissolved in surfactant solution, kept on vortex for 90 min for proper mixing, then diluted with water to the desired test concentrations. The solutions were incorporated into semi-synthetic diet when the temperature reached approximately 50° C. in the bioassay containers. The diet and solution was stirred thoroughly for properly mixing and was left to cool for 30 min. The solidified diet was cut into equal pieces, and then each piece was transferred into one cell of the bio-assay trays. A single starved third instar larva was released into each of these cells of the bioassay trays and the tray was covered with a lid. The bio-assay trays were kept under laboratory conditions at a temperature of 25° C. and relative humidity of 70%. Observations on dead, moribund and alive larvae were recorded at 96 h after the release of the larvae. Percent mortality was calculated by combining dead and moribund larvae and comparing the result to the one of the untreated control.

Results on 21 compounds are retold here after patent publication US12384787B2, “Fused heterocyclic compounds and their use as pest control agents” (PI INDUSTRIES LTD., priority 2019, dated 2025).

Regarding `CCS(=O)(=O)c1nn2c(C)cc(C)nc2c1-c1nc2cc(S(=O)(=O)C(F)(F)F)ccc2o1` [Compound 15, 2-(2-(Ethylsulfonyl)-5,7-dimethylpyrazolo[1,5-a]pyrimidin-3-yl)-5-((trifluoromethyl)sulfonyl)benzo[d]oxazole], the mortality at 300 ppm with Plutella xylostella, in the experiment with Helicoverpa armigera and with Spodoptera litura was > 70% each time.

Take `CCS(=O)(=O)c1nn2c(-c3ccc(F)cc3)ccnc2c1-c1nc2cc(C(F)(F)F)ncc2n1C` [Compound 21, 2-(2-(Ethylsulfonyl)-7-(4-fluorophenyl)pyrazolo[1,5-a]pyrimidin-3-yl)-3-methyl-6-(trifluoromethyl)-3H-imidazo[4,5-c]pyridine]: the mortality at 300 ppm in the experiment with Plutella xylostella, with Helicoverpa armigera and in the experiment with Spodoptera litura was > 70% throughout.

On to `CCS(=O)(=O)c1nn2c(-c3ccc(F)cc3)ccnc2c1-c1nc2cc(C(F)(F)F)cnc2n1C` [Compound 25, 2-(2-(Ethylsulfonyl)-7-(4-fluorophenyl)pyrazolo[1,5-a]pyrimidin-3-yl)-3-methyl-6-(trifluoromethyl)-3H-imidazo[4,5-b]pyridine], for which the mortality at 300 ppm with Plutella xylostella, with Helicoverpa armigera and with Spodoptera litura was > 70% in each case.

In the case of `CCSc1nn2c(-c3ccc(OC(F)(F)F)cc3)ccnc2c1-c1nc2cc(C(F)(F)F)ncc2n1C` [Compound 28, 2-(2-(Ethylthio)-7-(4-(trifluoromethoxy)phenyl)pyrazolo[1,5-a]pyrimidin-3-yl)-3-methyl-6-(trifluoromethyl)-3H-imidazo[4,5-c]pyridine], the mortality at 300 ppm with Plutella xylostella and with Helicoverpa armigera was > 70% in each case.

As to `CCS(=O)(=O)c1nn2c(-c3ccc(OC(F)(F)F)cc3)ccnc2c1-c1nc2cc(S(=O)(=O)C(F)(F)F)ccc2o1` [Compound 32, 2-(2-(Ethylsulfonyl)-7-(4-(trifluoromethoxy)phenyl)pyrazolo[1,5-a]pyrimidin-3-yl)-5-((trifluoromethyl)sulfonyl)benzo[d]oxazole], the mortality at 300 ppm in the experiment with Plutella xylostella and with Helicoverpa armigera was > 70% each time.

Take `CCS(=O)(=O)c1nn2c(-c3ccc(Cl)cc3)ccnc2c1-c1nc2cc(C(F)(F)F)ncc2n1C` [Compound 37, 2-(7-(4-Chlorophenyl)-2-(ethylsulfonyl)pyrazolo[1,5-a]pyrimidin-3-yl)-3-methyl-6-(trifluoromethyl)-3H-imidazo[4,5-c]pyridine]: the mortality at 300 ppm in the experiment with Plutella xylostella and in the experiment on Spodoptera litura was > 70% each time.

For `CCS(=O)(=O)c1nn2c(-c3ccc(Cl)cc3)ccnc2c1-c1nc2cc(C(F)(F)F)cnc2n1C` [Compound 39, 2-(7-(4-Chlorophenyl)-2-(ethylsulfonyl)pyrazolo[1,5-a]pyrimidin-3-yl)-3-methyl-6-(trifluoromethyl)-3H-imidazo[4,5-b]pyridine], the mortality at 300 ppm in the experiment on Plutella xylostella and in the experiment with Helicoverpa armigera was > 70% each time.

Consider `CCS(=O)(=O)c1nn2c(-c3ccc(OC(F)(F)C(F)F)cc3)ccnc2c1-c1nc2cc(C(F)(F)F)ncc2n1C` [Compound 91, 2-(2-(Ethylsulfonyl)-7-(4-(1,1,2,2-tetrafluoroethoxy)phenyl)pyrazolo[1,5-a]pyrimidin-3-yl)-3-methyl-6-(trifluoromethyl)-3H-imidazo[4,5-c]pyridine], for which the mortality at 300 ppm in the experiment on Plutella xylostella and in the experiment with Helicoverpa armigera was > 70% in each case.

On to `CCSc1nn2c(-c3cccc(Cl)c3)ccnc2c1-c1nc2cc(C(F)(F)F)cnc2n1C` [Compound 97, 2-(7-(3-Chlorophenyl)-2-(ethylthio)pyrazolo[1,5-a]pyrimidin-3-yl)-3-methyl-6-(trifluoromethyl)-3H-imidazo[4,5-b]pyridine], for which the mortality at 300 ppm with Helicoverpa armigera was > 70%.

Take `CCS(=O)(=O)c1nn2c(-c3cccc(Cl)c3)ccnc2c1-c1nc2cc(C(F)(F)F)cnc2n1C` [Compound 99, 2-(7-(3-Chlorophenyl)-2-(ethylsulfonyl)pyrazolo[1,5-a]pyrimidin-3-yl)-3-methyl-6-(trifluoromethyl)-3H-imidazo[4,5-b]pyridine]: the mortality at 300 ppm in the experiment with Plutella xylostella and with Helicoverpa armigera was > 70% in each case.

As for `CCSc1nn2c(-c3cc(F)cc(Cl)c3)ccnc2c1-c1nc2cc(C(F)(F)F)cnc2n1C` [Compound 102, 2-(7-(3-Chloro-5-fluorophenyl)-2-(ethylthio)pyrazolo[1,5-a]pyrimidin-3-yl)-3-methyl-6-(trifluoromethyl)-3H-imidazo[4,5-b]pyridine], the mortality at 300 ppm in the experiment on Helicoverpa armigera was > 70%.

On to `CCS(=O)(=O)c1nn2cc(-c3ccc(OC(F)(F)C(F)F)cc3)cnc2c1-c1nc2cc(C(F)(F)F)ncc2n1C` [Compound 109, 2-(2-(Ethylsulfonyl)-6-(4-(1,1,2,2-tetrafluoroethoxy)phenyl)pyrazolo[1,5-a]pyrimidin-3-yl)-3-methyl-6-(trifluoromethyl)-3H-imidazo[4,5-c]pyridine], for which the mortality at 300 ppm in the experiment with Plutella xylostella and in the experiment with Helicoverpa armigera was > 70% each time.

For the compound `CCSc1nn2c(-c3ccc(Cl)cc3Cl)ccnc2c1-c1nc2cc(C(F)(F)F)cnc2n1C` [Compound 120, 2-(7-(2,4-Dichlorophenyl)-2-(ethylthio)pyrazolo[1,5-a]pyrimidin-3-yl)-3-methyl-6-(trifluoromethyl)-3H-imidazo[4,5-b]pyridine], the mortality at 300 ppm in the experiment on Helicoverpa armigera is > 70%.

Take `CCSc1nn2c(-c3cccc(C(F)(F)F)c3)ccnc2c1-c1nc2cc(C(F)(F)F)cnc2n1C` [Compound 126, 2-(2-(Ethylthio)-7-(3-(trifluoromethyl)phenyl)pyrazolo[1,5-a]pyrimidin-3-yl)-3-methyl-6-(trifluoromethyl)-3H-imidazo[4,5-b]pyridine]: the mortality at 300 ppm with Helicoverpa armigera and in the experiment with Spodoptera litura was > 70% in each case.

As to `CCS(=O)(=O)c1nn2c(-c3cccc(C(F)(F)F)c3)ccnc2c1-c1nc2cc(C(F)(F)F)cnc2n1C` [Compound 129, 2-(2-(ethylsulfonyl)-7-(3-(trifluoromethyl)phenyl)pyrazolo[1,5-a]pyrimidin-3-yl)-3-methyl-6-(trifluoromethyl)-3H-imidazo[4,5-b]pyridine], the mortality at 300 ppm in the experiment on Plutella xylostella and in the experiment on Spodoptera litura was > 70% each time.

`CCS(=O)(=O)c1nn2c(-c3cccc(F)c3)ccnc2c1-c1nc2cc(C(F)(F)F)cnc2n1C` [Compound 130, 2-(2-(Ethylsulfonyl)-7-(3-fluorophenyl)pyrazolo[1,5-a]pyrimidin-3-yl)-3-methyl-6-(trifluoromethyl)-3H-imidazo[4,5-b]pyridine]: in the experiment with Plutella xylostella, the mortality at 300 ppm was > 70%.

On to `CCS(=O)(=O)c1nn2c(C)ccnc2c1-c1nc2cc(C(F)(F)F)cnc2n1C` [Compound 133, 2-(2-(Ethylsulfonyl)-7-methylpyrazolo[1,5-a]pyrimidin-3-yl)-3-methyl-6-(trifluoromethyl)-3H-imidazo[4,5-b]pyridine], for which the mortality at 300 ppm with Plutella xylostella is > 70%.

Regarding `CCSc1nn2c(-c3cccc(C(F)(F)F)c3)ccnc2c1-c1nc2cc(C(F)(F)F)ncc2n1C` [Compound 134, 2-(2-(Ethylthio)-7-(3-(trifluoromethyl)phenyl)pyrazolo[1,5-a]pyrimidin-3-yl)-3-methyl-6-(trifluoromethyl)-3H-imidazo[4,5-c]pyridine], the mortality at 300 ppm with Spodoptera litura is > 70%.

Take `CCS(=N)(=O)c1nn2c(-c3cc(Cl)cc(Cl)c3)ccnc2c1-c1nc2cc(C(F)(F)F)cnc2n1C` (stereo not shown) [Compound 135, (7-(3,5-Dichlorophenyl)-3-(3-methyl-6-(trifluoromethyl)-3H-imidazo[4,5-b]pyridin-2-yl)pyrazolo[1,5-a]pyrimidin-2-yl)(ethyl)(imino)-λ^6-sulfanone]: the mortality at 300 ppm with Plutella xylostella is > 70%.

Consider `CCS(=O)(=O)c1nn2c(-c3cccc(C(F)(F)F)c3)ccnc2c1-c1nc2cc(C(F)(F)F)ncc2n1C` [Compound 136, 2-(2-(Ethylsulfonyl)-7-(3-(trifluoromethyl)phenyl)pyrazolo[1,5-a]pyrimidin-3-yl)-3-methyl-6-(trifluoromethyl)-3H-imidazo[4,5-c]pyridine], for which the mortality at 300 ppm in the experiment on Plutella xylostella and in the experiment with Helicoverpa armigera was > 70% in each case.

As to `CCS(=O)(=O)c1nn2c(-c3cccc(F)c3)ccnc2c1-c1nc2cc(C(F)(F)F)ncc2n1C` [Compound 137, 2-(2-(Ethylsulfonyl)-7-(3-fluorophenyl)pyrazolo[1,5-a]pyrimidin-3-yl)-3-methyl-6-(trifluoromethyl)-3H-imidazo[4,5-c]pyridine], the mortality at 300 ppm with Plutella xylostella is > 70%.
